The values below come from patent US20100003217A1, “Compounds and Pharmaceutical Compositions for the Treatment of Viral Infections” (priority 2008, published 2010).

Assay type in all cases: in vitro ADME
Series [1] deals with CYP2B6 (Homo sapiens, UniProt P20813). Kind of series: Incubation with human recombinant CYP450 supersomes, 2B6. Particulars: CYP450 2B6 supersomes, 60 min, 10 μM, average of two experiments. As for the experimental part:
Supersomes—Incubations were conducted in a final volume of 0.1 mL reaction buffer (50-100 mM potassium phosphate, pH 7.4 or 100 mM Tris-HCL, pH 7.4) according to protocol provided with each CYP450 supersome. Each reaction contained […] of CYP450 supersome, 1.3 mM NADP^+, 3.3 mM glucose-6-phosphate, 0.4 U/mL glucose-6-phosphate dehydrogenase, 3.3 mM MgCl2 and 10 μM Compound 1. Following incubation for 60 min at 37° C., 100 μL of stop solution (acetonitrile:methanol; 1:1) was added and samples centrifuged for 10 min at 10,000×g. The supernatant was then dried and reconstituted in 10 mM potassium phosphate, pH 5, further transferred to an HPLC glass vial and analyzed by HPLC-UV (described above).

The nature of series [2]: In vitro intracellular half-life of 2′-C-methyl guanosine-5′-triphosphate (Compound 7) in rat primary hepatocytes. The conditions noted are these: primary hepatocytes (cellular extracts). As for the experimental part:
(§1) Primary hepatocytes were incubated with 10 μM [^14C]-Compound 1 ([…]) or [^14C]-2′-C-methyl guanosine (127 DPM/μmol) for 24 hours at which time the incubation medium was removed and the cell monolayer carefully washed two times with warm (37° C.) PBS and placed back in culture with drug-free medium. At selected times up to 24 hours, the medium was removed and the cell monolayers carefully washed two times with ice-cold PBS. Following the last wash, all PBS was carefully removed and the cell monolayers processed and extracted as previously described. […]

Series [3] deals with rat primary hepatocytes. The description is as above. The conditions noted are these: for Decay of Compound 7: level in cellular extracts: rat hepatocytes Rs458, after 24 h incubation with 10 μM [^14C]-Compound 1. The protocol: as §1
Setting [4] is: rat hepatocytes, [^14C]-Compound 1 removed.

The term half-life denotes the time in which the quantity being followed falls by half. Low readings indicate fast loss, high ones slow loss.

CYP2B6, sequence (P20813 whole entry): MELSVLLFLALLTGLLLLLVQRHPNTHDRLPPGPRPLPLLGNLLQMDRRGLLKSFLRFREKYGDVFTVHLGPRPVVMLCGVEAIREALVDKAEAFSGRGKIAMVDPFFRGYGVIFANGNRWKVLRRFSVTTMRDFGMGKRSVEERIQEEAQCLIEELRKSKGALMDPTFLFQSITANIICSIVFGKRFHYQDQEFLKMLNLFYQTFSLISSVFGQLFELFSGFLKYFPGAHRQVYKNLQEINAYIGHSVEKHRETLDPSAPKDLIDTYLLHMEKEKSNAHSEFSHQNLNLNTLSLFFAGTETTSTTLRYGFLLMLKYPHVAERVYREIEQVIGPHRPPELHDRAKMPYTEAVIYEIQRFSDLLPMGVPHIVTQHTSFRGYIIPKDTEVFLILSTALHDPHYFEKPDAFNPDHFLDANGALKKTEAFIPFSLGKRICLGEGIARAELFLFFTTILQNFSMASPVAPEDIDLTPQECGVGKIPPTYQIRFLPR

Take `CC(C)(CO)C(=O)SCCOP(=O)(NCc1ccccc1)OC[C@H]1O[C@@H](n2cnc3c(=O)[nH]c(N)nc32)[C@](C)(O)[C@@H]1O` (mixture of isomers) [Compound 1, 3-hydroxy-2,2-dimethyl-thiopropionic acid S-(2-{[(2R,3R,4R,5R)-5-(2-amino-6-oxo-1,6-dihydro-purin-9-yl)-3,4-dihydroxy-4-methyl-tetrahydro-furan-2-ylmethoxy]-benzylamino-phosphoryloxy}-ethyl) ester]: the “% Residual Compound 1” value in series [1] is 108%.

As to `C[C@@]1(O)[C@H](O)[C@@H](COP(=O)(O)OP(=O)(O)OP(=O)(O)O)O[C@H]1n1cnc2c(=O)[nH]c(N)nc21` [Compound 7, [(2R)-2-methyl-β-D-ribofuranosyl]guanine 5′-triphosphate], the half-life at 10 μM in series [2] (rat hepatocytes Rs458, after 24 h incubation with 10 μM [^14C]-Compound 1, linear regression) was 6.61 h; in series [2] (rat hepatocytes, following [^14C]-Compound 1) it was 6.61 h. In addition, the “Decay of Compound 7: level in cellular extracts” value in series [3] (decay time 0 h) was 932 pmol/million cells; in series [3] (decay time 1 h), 954 pmol/million cells; in series [3] (decay time 4 h) it was 811 pmol/million cells; in series [3] (decay time 8 h) it was 545 pmol/million cells; in series [3] (decay time 24 h) it was 83.0 pmol/million cells. Moreover, the “Compound 7 levels after 24 hours without drug” value in series [3] (setting [4]) amounted to 83 pmol/million cells. In series [3] (setting [4]), the “reduction of Compound 7 levels after 24 hours without drug” value came out at 91%. The “Compound 7 levels at time zero” value in series [3] (rat hepatocytes, after 24 h with 10 μM [^14C]-Compound 1) is 932 pmol/million cells.
